Measurements from US9701625B2, “Nitrone compounds and their use in personal care” (Dow Global Technologies LLC, priority 2014, dated 2017).

Test: Oxygen Radical Absorbance Capacity (ORAC) protocol
Conditions: for TEAC values compared to the compounds of the invention: in words; for TEAC: Trolox equivalent AO capacity calculated from ORAC values
Protocol: Antioxidant potential is evaluated using the Oxygen Radical Absorbance Capacity (ORAC) protocol. ORAC is a chemical in-vitro method based on the hydrogen atom transfer (HAT) mechanism (see N. Re et al., Free Radical Biology & Medicine, 26 (9/10), 1231 (1997)). ORAC measures antioxidant inhibition of peroxyl radical induced oxidations and thus reflects classical radical chain breaking antioxidant activity by H atom transfer. In this assay, the peroxyl radical reacts with a fluorescent probe to form a non-fluorescent product. This is quantitated using a fluorescence measurement. Antioxidant capacity is determined by decreased rate and amount of product formed over time. This assay depends upon the free radical damage to the fluorescent probe resulting in the change in its fluorescence intensity. The change of fluorescence intensity is an indicator of the degree of free radical damage. In the presence of an antioxidant, the inhibition of free radical damage is reflected in higher fluorescence intensity and can be measured as antioxidant capacity against the free radicals. The uniqueness of ORAC assay is that the reaction is driven to completion. This allows calculation of the area under the curve (AUC) and gives an absolute quantitation of antioxidancy as opposed to relative measurements in many other assays.
As noted, the longer it takes to observe a decrease in fluorescence, the higher the antioxidant (AO) potential. From the AUC for a given antioxidant, the AUC for blank is subtracted to give its ORAC value. The concentration of AO needed to give the same AUC values as Trolox is calculated and used to represent the Trolox equivalent AO Capacity (TEAC). Trolox is ((±)-6-Hydroxy-2,5,7,8-tetramethylchromane-2-carboxylic acid, CAS #53188-07-1), and is used as an internal control.
The ORAC test is conducted in the compounds of Table 1 above (inventive compounds) as well as to Vitamin C, Vitamin E, and the following comparative compounds:
The inventive nitrones in the ORAC test solutions were at a concentration of 30 micromolar, while the concentrations of Trolox, Vitamin C, Vitamin E, BHT, PBN+BHT, and VAL-IPHA were at 100 micromolar. The TEAC values calculated from the ORAC values are listed the Table 2.

[1] = test concentration 100 micromolar
[2] = inventive nitrones at 30 micromolar

Compound | TEAC values compared to the compounds of the invention | TEAC [1] | TEAC [2]
CC(C)(C)/[N+]([O-])=C/c1ccccc1 [PBN] | not very high | – | –
CCCC/C=[N+](\[O-])C(C)C [VAL-IPHA] | not very high | 0.18 | –
Vitamin E | – | 0.13 | –
COc1cc(/C=[N+](\[O-])Cc2ccc(O)cc2O)ccc1O [compound 1] | – | – | 6.45
[O-]/[N+](=C\c1ccc(O)cc1)Cc1ccc(O)cc1 [compound 2] | – | – | 2.94
Cc1cc(C(C)(C)C)c(O)c(C(C)(C)C)c1 [BHT] | not very high | 0.11-0.21 | –
O=C1O[C@H]([C@@H](O)CO)C(O)=C1O [Vitamin C] | – | 0.76 | –
